These results are taken from article PMC9100651, “Focused Design of Novel Cyclic Peptides Endowed with GABARAP-Inhibiting Activity” (International Journal of Molecular Sciences, 2022).

Data set [1] has as its target T1, GABARAP (Homo sapiens, UniProt O95166). Further details: method as in PMID 18638487. The conditions noted are these: SPR; cited from earlier work. Background: In SPR one partner is held on a chip, and binding of the other changes the refractive index at the surface.
The target in data set [2] is T2, 6-His-tagged recombinant GABARAP (Homo sapiens, UniProt O95166).
T2 construct: purchased Abcam, Cambridge, UK
Nature of the data set: Microscale Thermophoresis (MST) binding affinity. As for the experimental part: The binding affinity (Kd) between the target protein (6-His-tagged recombinant GABARAP, produced by Abcam, Cambridge, UK) and peptide ligands (K1, WC8 and WC10, acquired by ProteoGenix, Schiltigheim, France) was measured by MST [22]. Briefly, histidine-tagged GABARAP was labeled by using a His-tag-specific dye for 30 min at room temperature, using either the conventional Monolith His-Tag Labeling Kit RED-tris-NTA (MO-L008) or the newer Monolith His-Tag Labeling Kit RED-tris-NTA 2nd Generation (MO-L018), both purchased from NanoTemper Technologies (GmbH, München, Germany). MST experiments were performed on both a Monolith NT.115 and a Monolith NT.115Pico instrument (NanoTemper Technologies, München, GmbH), in order to further increase the statistical significance of the attained results.
A fixed concentration of the labeled GABARAP protein was mixed with 16 1:1 serial dilutions of K1, WC8, and WC10. The protein and the peptide were incubated for 60–90 min at room temperature. The MST analysis was performed using standard capillaries, with the following experimental settings: an MST power of 40% (to create a temperature gradient) and a different excitation power in relation to the considered system and instrument (see Supplementary Materials for details, Table S1). Kd values were calculated from compound concentration-dependent changes of normalized fluorescence (Fnorm). In all the experiments, both the protein and the peptides were dissolved in PBS-T buffer (phosphate-buffered saline + 0.05% Tween™ 20; NanoTemper Technologies, GmbH) and 2.5% DMSO. The auto-fluorescence of each peptide was evaluated before proceeding to the determination of the Kd. At least two independent experiments were performed to calculate the Kd values. Data were processed using the NanoTemper MO.Affinity Analysis software (version 2.3), and the fitting was performed by using the Kd model. […]
Table S1. Summary table of the Microscale Thermophoresis (MST) experiments performed on both
Monolith NT.115 and Monolith NT.115Pico instruments. At least two independent experiments were
performed to compute the Kd value.
Protein Ligand MST Exc. Temp. [Ligand] Range SNR* Kd (µM)

Data set [3] deals with PC-3 prostate cancer cells. To be noted: human, 96 h, 10 µM.
Experimental: (§1) PC-3 prostate cancer cell line was purchased from the American Type Culture Collection (ATCC, Manassas, VA, USA), cultured at 37 °C and 5% CO2 in Ham’s F-12 K (Kaighn’s) basal medium (Gibco Laboratories, Grand Island, NY, USA), supplemented with 10% FBS (Gibco Laboratories) and 1% of 100 U/mL penicillin/streptomycin (Gibco Laboratories).
(§2) PC-3 and PNT2 cell lines were seeded at a density of 1 × 10^4 cells/well in 96-well plates and maintained under standard growth conditions.
(§3) After 96 h, cell viability was assessed by MTS assay according to the manufacturer’s protocol (Cell Titer 96 Aqueous One Solution Cell Proliferation Assay; Promega, Nacka, Sweden) using a 96-well-plate spectrophotometer (Varioskan Flash Multimode Reader; Thermo-Scientific, Waltham, MA, USA) set at λ = 490 nm. The absorbance value of untreated cells was set at 100% (control), and the viability of treated cells was expressed as a percentage of the control. Three independent experiments were performed in triplicate for each condition.
Data set [4] deals with T1, GABARAP. In words: Surface Plasmon Resonance (SPR), steady-state affinity. Type of data set: binding. As for the experimental part: SPR experiments were performed on a BIAcore 8K system (Cytiva, Marlborough, MA, USA). GABARAP was dissolved in 10 mM of sodium acetate (pH 5.5) and amine-coupled to a CM5 sensor chip (GE Healthcare, Chicago, IL, USA). The reference peptide K1 was dissolved in the running buffer (10 mM Hepes, pH 7.4, 150 mM NaCl) at concentrations of 10 μM to 156 nM. Gradient concentrations of K1 were injected at a flow rate of 30 μL/min, contact time 120 s at 25 °C. WC8 and WC10 were both dissolved in the running buffer (Sigma-Aldrich Dulbecco’s PBS, pH 7.4, 0.005% Tween™ and 5% DMSO; Sigma-Aldrich, St. Louis, MO, USA) at concentrations of 100 μM to 6.25 μM and 12.5 μM to 390 nM, respectively. Gradient concentrations of the peptides were then flowed over the chip with a flow rate of 30 μL/min, contact time 120 s at 25 °C. […] Two independent experiments for WC8 and WC10 were performed. The binding kinetics were evaluated using the BIAevaluation software package and applying the 1:1 steady-state affinity model.

Data set [5] deals with PC-3 prostate cancer cells. In words: MTS cell viability assay on PC-3 cells. The conditions noted are these: for cell viability: PC-3, highest tested concentration (10 µM), 96 h post-treatment, % of untreated control. For orientation: Tetrazolium dyes change colour on reduction, which living cells bring about.
Experimental: as §1, §2, §3
Data set [6] is described as follows: Solubility and stability in water and PBS buffer.
Text: Initially, we verified that the peptides were water soluble and stable in the buffer in which the recombinant GABARAP protein was solved.
Data set [7] deals with T1, GABARAP. Further details: method as in PMID 29867141. To be noted: cited from earlier work.
[8] abbreviates: Kd (MST), Monolith NT.115Pico, GABARAP 10 nM, 25°C.
Where [9] appears, read: Kd on GABARAP, consistent among MST and SPR.

Values joined by “and” are separate entries in the source; they are usually repeats but may differ in a detail not shown here. Equal entries are not always repeated. Where two headings read alike, the source gives them in different places. Bridge positions count the residues as written; N and C are the ends. Peptide text beside a SMILES is read from it.

T2 sequence (O95166 whole entry): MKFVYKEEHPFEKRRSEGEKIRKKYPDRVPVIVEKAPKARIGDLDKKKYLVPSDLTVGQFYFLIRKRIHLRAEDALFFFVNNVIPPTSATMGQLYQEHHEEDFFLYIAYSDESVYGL
T1 sequence (O95166 whole entry): as above

Usually Kd stands for the equilibrium constant for the complex coming apart. The term cell viability denotes a read-out of living cells in per cent, often relative to untreated cells. A high value points to less harm to the cells. Consider `CC(C)C[C@H](NC(=O)[C@H](Cc1c[nH]cn1)NC(=O)[C@H](CCC(=O)O)NC(=O)[C@H](Cc1c[nH]c2ccccc12)NC(=O)[C@@H](NC(=O)[C@H](Cc1ccc(O)cc1)NC(=O)[C@@H](NC(=O)[C@H](C)NC(=O)[C@@H](N)CC(=O)O)[C@@H](C)O)[C@@H](C)O)C(=O)N[C@@H](C)C(=O)N[C@@H](Cc1c[nH]c2ccccc12)C(=O)N1CCC[C@H]1C(=O)O` [Peptide K1, DATYTWEHLAWP, reference compound], for which the Kd is 0.39 µM and ~0.39 µM in data set [1]; 2.6 ± 0.4 µM in data set [2] (Monolith NT.115, 25°C, PBS-T, 2.5% DMSO, read-out: Kd (MST)); 3.5 ± 0.9 µM in data set [2] (Monolith NT.115Pico, GABARAP 10 nM, 25°C, read-out: Kd (MST)); roughly 3 µM in data set [2] (consistent among MST and SPR, read-out: Kd on GABARAP); 3 µM in data set [4] (BIAcore 8K, steady-state analysis, 25 °C, read-out: Kd (SPR)). The compound further returned a cell viability in data set [3] of 27.16%.

Consider `CC[C@H](C)[C@@H]1NC(=O)[C@@H](NC(=O)[C@H](CCC(=O)O)NC(=O)[C@@H](N)Cc2c[nH]c3ccccc23)CSSC[C@@H](C(=O)O)NC(=O)[C@H](CCC(=O)O)NC(=O)[C@H](CC(=O)O)NC(=O)[C@H](Cc2ccccc2)NC1=O` [WC8, WECIFDEC] (H-WECIFDEC-OH; disulfide 3-8; N-terminus assumed), for which the results for the Kd in data set [2] (setting [8]), in data set [2] (setting [9]) and in data set [4] were 20.8 ± 2.7 µM, 22 µM and 24.8 µM, respectively. Also, the “Kd on GABARAP” value in data set [2] (consistent among MST and SPR) was “low micromolar range”. The “efficacy on PC-3 cells compared to Paclitaxel” value in data set [5] (PC-3, from 1 to 10 µM, 96 h) is on record as “high efficacy”. The cell viability in data set [5] worked out at 24.06%. The “stability in water and PBS” value in data set [6] is “excellent stability”.

For `CC[C@H](C)[C@@H]1NC(=O)[C@@H](NC(=O)[C@H](CCC(=O)O)NC(=O)[C@H](Cc2c[nH]c3ccccc23)NC(=O)CNC(=O)[C@@H](N)Cc2c[nH]c3ccccc23)CSSC[C@@H](C(=O)O)NC(=O)[C@H](CCC(=O)O)NC(=O)[C@H](CC(=O)O)NC(=O)[C@H](Cc2ccccc2)NC1=O` [WC10, WGWECIFDEC] (H-WGWECIFDEC-OH; disulfide 5-10; N-terminus and C-terminus assumed), the Kd was 4.2 ± 1.8 µM in data set [2] (Kd (MST), Monolith NT.115, 25°C, PBS-T, 2.5% DMSO); 3.8 ± 1.5 µM in data set [2] (setting [8]); roughly 4 µM in data set [2] (setting [9]); 4.9 µM in data set [4]. The “Kd on GABARAP” value in data set [2] (consistent among MST and SPR) was “low micromolar range”. The compound further showed a cell viability in data set [5] of 22.5%. Further, the “stability in water and PBS” value in data set [6] was “excellent stability”.

EEWVIVSDEEIEEARQKA [AnkB-LIR]: the Kd in data set [7] is 0.00027 µM.
